According to patent US11129807B2, “Methods of treating schizophrenia” (Sunovion Pharmaceuticals Inc., priority 2017, dated 2021):

Tests used:
[1] = test system: Pre-pulse Inhibition (PPI) in Mice; test: Pre-pulse inhibition (PPI) of startle in mice;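 note: plus grades count prepulse intensities with significant PPI increase at P below 0.05 and minus means no change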; assay type: in vivo; conditions: 30 min prior to PPI test, male C57Bl/6J mice, vs. vehicle
Procedure: (§1) Anti-psychotic like activity of the compounds was evaluated in mice using the PCP hyperactivity and Pre-Pulse Inhibition (PPI) models of schizophrenia.
(§2) Methods: Animals: Male C57Bl/6J mice from Jackson Laboratories (Bar Harbor, Me.) were used. Upon receipt, mice were assigned unique identification numbers (tail marked) and were group housed with 4 mice per cage in OptiMICE ventilated cages. All animals remained housed in groups of four during the remainder of the study. All mice were acclimated to the colony room for at least two weeks prior to testing. During the period of acclimation, mice were examined on a regular basis, handled, and weighed to assure adequate health and suitability. Animals were maintained on a 12/12 light/dark cycle. The room temperature was maintained between 20 and 23° C. with a relative humidity maintained between 30% and 70%. Chow and water were provided ad libitum for the duration of the study. In each test, animals were randomly assigned across treatment groups.
Prepulse Inhibition of Startle: The acoustic startle is an unconditioned reflex response to an external auditory stimulus. Prepulse inhibition of startle (PPI) refers to the reduction in the startle response caused by the presentation of a low-intensity auditory stimulus prior to the startle stimulus. The PPI paradigm is used for the study of schizophrenia and antipsychotic action due to the similarities between the results from human and rodent studies. […] Various psychotomimetic drugs such as PCP can disrupt PPI. In mice, antipsychotic drugs such as clozapine can reverse the disruption of PPI induced by PCP.
Mice were placed in the PPI chambers (Med Associates) for a 5 min session of white noise (70 dB) habituation. After the habituation period the test session was initiated. The session started with a habituation block of 6 presentations of the startle stimulus alone, followed by 10 PPI blocks, each of which consisted of 6 different types of trials. Trial types were: ‘null’ (no stimuli), ‘startle’ (120 dB), ‘startle plus prepulse’ (4, 8 and 12 dB over background noise, i.e., 74, 78 or 82 dB) and ‘prepulse’ (82 dB). Trial types were presented in a random order within each block. Each trial started with a 50 ms stimulus-free period during which baseline movements were recorded. This was followed by a subsequent 20 ms period during which the prepulse stimulus was presented and responses to the prepulse measured. After a further 100 ms period, the startle stimulus was presented for 40 ms and responses recorded for 100 ms from startle onset. Responses were sampled every ms. The inter-trial interval was variable with an average of 15 s (range from 10 to 20 s). In ‘startle’ trials the basic auditory startle response was measured. The basic startle response was calculated as the mean startle response of all ‘startle’ trials (i.e., excluding the first habituation block). In ‘startle plus prepulse’ trials the degree of inhibition of the normal startle was calculated and expressed as a percentage of the basic startle response.
Mice were treated with vehicle, haloperidol (1 mg/kg; i.p) or test compound 30 min prior to PPI test. The PPI enclosures were cleaned following each test.

[2] = test system: PCP-Induced Hyperactivity Responses in Mice; test: PCP-induced hyperactivity (open field) in mice;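 note: plus means significant inhibition of PCP hyperactivity at P below 0.05 and minus means none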; assay type: in vivo; conditions: male C57Bl/6J mice, vs. vehicle + PCP
Procedure: as §1, §2
The analysis was configured to divide the open field into a center and periphery zone. Distance traveled was measured from horizontal beam breaks as the mouse moved whereas rearing activity was measured from vertical beam breaks.
Mice were injected with vehicle, test compound, or clozapine (1 mg/kg; i.p) and placed in the OF chambers for 30 min measurement of baseline activity. Mice were then injected with either water or PCP (5 mg/kg; i.p) and placed back in the OF chambers for a 60-minute session. At the end of each OF test session the OF chambers were thoroughly cleaned.

[3] = 0.3 mg/kg Compound + PCP (5 mg/kg; i.p)
[4] = 1 mg/kg Compound + PCP (5 mg/kg; i.p)
[5] = 3 mg/kg Compound + PCP (5 mg/kg; i.p)
[6] = 10 mg/kg Compound + PCP (5 mg/kg; i.p)
[7] = 30 mg/kg Compound + PCP (5 mg/kg; i.p)
[8] = 100 mg/kg Compound + PCP (5 mg/kg; i.p)

SMILES	Effect on Pre-pulse Inhibition (PPI) ([1]; 3 mg/kg)	Effect on Pre-pulse Inhibition (PPI) ([1]; 10 mg/kg)	Effect on Pre-pulse Inhibition (PPI) ([1]; 30 mg/kg)	Total Distance Traveled (cm) [2, 3]	Total Distance Traveled (cm) [2, 4]	Total Distance Traveled (cm) [2, 5]	Total Distance Traveled (cm) [2, 6]	Total Distance Traveled (cm) [2, 7]	Effect on Pre-pulse Inhibition (PPI) ([1]; 100 mg/kg)	Total Distance Traveled (cm) [2, 8]
C[C@H](N)[C@@H]1OCCc2ccsc21 [Compound 213]	−	+++	+++	+	+	+	+	+		
CNCC1OCCc2sccc21 (centres unmarked) [Compound 4]		+++	−	+	+	+	+	+	+++	+
CCNCC1OCCc2sccc21 (centres unmarked) [Compound 13]		−	−						+++	
NCC1OCCc2sccc21 (centres unmarked) [Compound 1]		−	+++				+	+	+++	−
CNC[C@H]1OCCc2sccc21 [Compound 28]		−	+++	+	+	+	+	+	+++	+
CCNC[C@H]1OCCc2sccc21 [Compound 311]	−	−	+++	−	+	+	+	+		
CNC[C@H]1OCCc2scc(C)c21 [Compound 131]	−	−	−	−	+	+				
CNCC1OCCc2scc(C)c21 (centres unmarked) [Compound 78]		−	−				+	+	−	+
CNCC1OCCc2sc(C)cc21 (centres unmarked) [Compound 5]		−	+++				+	+	+++	+
CCNC[C@H]1OCCc2ccsc21 [Compound 242]	−	−	−	−	+	+	+	+		
NC[C@H]1OCCc2sccc21 [Compound 3]		+++	+++				−	−	−	−
c1cc2c(s1)CCO[C@H]2[C@H]1CCCN1 [Compound 102]	−	−	−	−	+	+	+	+		
c1cc2c(s1)CCO[C@@H]2[C@@H]1CCCN1 [Compound 119]							+	+		+
